In ChEMBL document CHEMBL1201862, “PubChem BioAssay data set” (2004):
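These data come from cells grown in 96-well plates and exposed to compound for 48 hours at five concentrations. GI50: concentration for 50% inhibition of growth.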 Activity calls are given as the source filed them. Rule as the data show it: active = GI50 up to about 1.1 µM and inactive = higher.

What was measured:
Assay in all cases: DTP human tumour cell line panel, 48 h
[1] = system: CCRF-CEM
[2] = system: HOP-92
[3] = system: A498
[4] = system: A549
[5] = system: SF-539
[6] = system: NCI-H460
[7] = system: SF-268
[8] = system: HL-60
[9] = system: RXF 393
[10] = system: HCT-116
[11] = system: COLO 205
[12] = system: KM12
[13] = system: 786-0
[14] = system: SK-MEL-28
[15] = system: SK-OV-3
[16] = system: OVCAR-5
[17] = system: IGROV-1
[18] = system: MDA-MB-231
[19] = system: MDA-MB-435

Row | SMILES | GI50 [1] | GI50 [2] | GI50 [3] | GI50 [4] | GI50 [5] | GI50 [6] | GI50 [7] | GI50 [8] | GI50 [9] | GI50 [10] | GI50 [11] | GI50 [12] | GI50 [13] | GI50 [14] | GI50 [15] | GI50 [16] | GI50 [17] | GI50 [18] | GI50 [19]
1 | NC(=O)C(=O)Cc1nc2ccccc2s1 | > 100 µM (inactive) | > 100 µM (inactive) | > 100 µM (inactive) | > 100 µM (inactive) | > 100 µM (inactive) | > 100 µM (inactive) | > 100 µM (inactive) | > 100 µM (inactive) | > 100 µM (inactive) | > 100 µM (inactive) | > 100 µM (inactive) | > 100 µM (inactive) | > 100 µM (inactive) | > 100 µM (inactive) | > 100 µM (inactive) | > 100 µM (inactive) |  |  | 
2 | O=C(CC1Sc2ccccc2NC1=O)Nc1ccc([N+](=O)[O-])cc1[N+](=O)[O-] (stereo not drawn) | 15.6 µM (inactive) | 11 µM (inactive) |  | 26.5 µM (inactive) |  | 23.7 µM (inactive) | 16.6 µM (inactive) | 17.8 µM (inactive) | 12.9 µM (inactive) | 16 µM (inactive) | 26.7 µM (inactive) | 21.7 µM (inactive) | 17.9 µM (inactive) | 17.7 µM (inactive) |  | 29.2 µM (inactive) | 17.4 µM (inactive) |  | 
3 | C[S+]=c1sc2ccccc2s1 | > 100 µM (inactive) | > 100 µM (inactive) | > 100 µM (inactive) | > 100 µM (inactive) | > 100 µM (inactive) | > 100 µM (inactive) | > 100 µM (inactive) | > 100 µM (inactive) | > 100 µM (inactive) | > 100 µM (inactive) | > 100 µM (inactive) | > 100 µM (inactive) | > 100 µM (inactive) |  | > 100 µM (inactive) | > 100 µM (inactive) | > 100 µM (inactive) |  | 
4 | CC1=N/C(=C\c2cccc3ccccc23)C(=O)O1 | > 100 µM (inactive) | > 100 µM (inactive) | > 100 µM (inactive) | > 100 µM (inactive) | > 100 µM (inactive) | > 100 µM (inactive) | > 100 µM (inactive) | > 100 µM (inactive) | > 100 µM (inactive) | > 100 µM (inactive) | > 100 µM (inactive) | > 100 µM (inactive) | > 100 µM (inactive) | > 100 µM (inactive) |  | > 100 µM (inactive) | > 100 µM (inactive) |  | 
5 | CCOc1cc(/C=N\N(C)C)cc(/C=N\N(C)C)c1O | 44.7 µM (inactive) | 7.66 µM (inactive) | 55.5 µM (inactive) | > 100 µM (inactive) | 20.6 µM (inactive) | 30.1 µM (inactive) | 19.8 µM (inactive) | 52.5 µM (inactive) |  | 90.6 µM (inactive) | 18.7 µM (inactive) | > 100 µM (inactive) | 42.7 µM (inactive) | 35.4 µM (inactive) | 29.4 µM (inactive) | 48.2 µM (inactive) |  | 43.1 µM (inactive) | 32.5 µM (inactive)
6 | COC(=O)C1(C)NCCc2c1[nH]c1ccccc21 (stereo not drawn) | > 100 µM (inactive) | > 100 µM (inactive) | > 100 µM (inactive) | > 100 µM (inactive) | > 100 µM (inactive) |  | > 100 µM (inactive) | > 10 µM (inactive) | > 100 µM (inactive) | > 100 µM (inactive) | > 100 µM (inactive) | > 100 µM (inactive) | > 100 µM (inactive) | > 100 µM (inactive) | > 100 µM (inactive) | > 100 µM (inactive) | > 100 µM (inactive) |  | 
7 | CC1CC(=O)Nc2ccccc2N1C(=O)CN1CCC(CCCCN(C)C)CC1 (stereo not drawn) | > 100 µM (inactive) |  | > 100 µM (inactive) | > 100 µM (inactive) | > 100 µM (inactive) | > 100 µM (inactive) | > 100 µM (inactive) | > 100 µM (inactive) | > 100 µM (inactive) | > 100 µM (inactive) | > 100 µM (inactive) | > 100 µM (inactive) | > 100 µM (inactive) | > 100 µM (inactive) |  | > 100 µM (inactive) | > 100 µM (inactive) |  | 
8 | CN(C)C(=N)c1ccccc1 |  | > 100 µM (inactive) |  | > 100 µM (inactive) | > 100 µM (inactive) | > 100 µM (inactive) |  | > 100 µM (inactive) | > 100 µM (inactive) | > 100 µM (inactive) | > 100 µM (inactive) | > 100 µM (inactive) | > 100 µM (inactive) | > 100 µM (inactive) |  | > 100 µM (inactive) |  |  | 
9 | C#CC1(O)CCC2C3CCc4cc(Oc5nc(F)nc(-c6c7ccccc7c7n6CCS7)n5)ccc4C3CC[C@@]21C (stereo partly drawn) | 11 µM (inactive) | 23.8 µM (inactive) |  | 33.6 µM (inactive) | 15.7 µM (inactive) | 35.4 µM (inactive) | 29 µM (inactive) | 19.8 µM (inactive) |  | 12.1 µM (inactive) | 29 µM (inactive) | 15.1 µM (inactive) | 34.1 µM (inactive) | 21.1 µM (inactive) |  | > 100 µM (inactive) | 29.2 µM (inactive) |  | 
10 | Cc1nc2ccccn2c1/N=N/c1ccc(C(=O)NN)cc1 | 4.59 µM (inactive) | 46.5 µM (inactive) | 27.7 µM (inactive) | 24.9 µM (inactive) | 77.3 µM (inactive) |  | 19.4 µM (inactive) | 9.31 µM (inactive) | 9.82 µM (inactive) |  | 51.2 µM (inactive) |  | 53.8 µM (inactive) | 80.9 µM (inactive) | 48 µM (inactive) | 36.1 µM (inactive) | 21.7 µM (inactive) |  | 
11 | C=C1CCC(OC(C)=O)C2(C)C(OC(C)=O)CC3OC3(C)C2C(OC(C)=O)C2C(C)C(=O)OC2C1Cl (stereo not drawn) | > 100 µM (inactive) | > 100 µM (inactive) | > 100 µM (inactive) | > 100 µM (inactive) | > 100 µM (inactive) | > 100 µM (inactive) | > 100 µM (inactive) | > 100 µM (inactive) | > 100 µM (inactive) | > 100 µM (inactive) | > 100 µM (inactive) | > 100 µM (inactive) | > 100 µM (inactive) | > 100 µM (inactive) | > 100 µM (inactive) | > 100 µM (inactive) | > 100 µM (inactive) |  | 
12 | COc1ccc2nc3cc(Cl)ccc3c(NC(C)CCCN(CCCl)CCCl)c2c1 (stereo not drawn) | 0.0612 µM (active) | 0.569 µM (active) | 3.12 µM (inactive) | 0.474 µM (active) | 0.55 µM (active) | 0.159 µM (active) | 0.273 µM (active) | 0.12 µM (active) | 1.04 µM (active) | 0.199 µM (active) | 0.397 µM (active) | 0.52 µM (active) | 0.31 µM (active) | 5 µM (inactive) | 0.83 µM (active) | 0.929 µM (active) | 0.317 µM (active) |  | 
13 | COc1ccc(C(=O)C(C(=O)CC(=O)Nc2cccc(C(F)(F)F)c2)c2ccc(OC)cc2)cc1 (stereo not drawn) | > 100 µM (inactive) | > 100 µM (inactive) | > 100 µM (inactive) | > 100 µM (inactive) | > 100 µM (inactive) | > 100 µM (inactive) | > 100 µM (inactive) | > 100 µM (inactive) | 78.9 µM (inactive) | > 100 µM (inactive) | > 100 µM (inactive) | > 100 µM (inactive) | > 100 µM (inactive) | > 100 µM (inactive) | > 100 µM (inactive) | 7.73 µM (inactive) | > 100 µM (inactive) |  | 
14 | N#CC(C#N)=c1ccc(=C2N3CCCC3CN2C23CC4CC(CC(C4)C2)C3)cc1 (stereo not drawn) | > 100 µM (inactive) | > 100 µM (inactive) |  | > 100 µM (inactive) | > 100 µM (inactive) | > 100 µM (inactive) | 55.8 µM (inactive) | > 100 µM (inactive) | > 100 µM (inactive) | > 100 µM (inactive) | > 100 µM (inactive) | > 100 µM (inactive) | > 100 µM (inactive) | 69.3 µM (inactive) | > 100 µM (inactive) | > 100 µM (inactive) | > 100 µM (inactive) |  | 
15 | C[C@]12CCC(=O)C(OC(=O)c3ccc([N+](=O)[O-])cc3)=C1CCC2=O | > 100 µM (inactive) | > 100 µM (inactive) | > 100 µM (inactive) | > 100 µM (inactive) | > 100 µM (inactive) | > 100 µM (inactive) | > 100 µM (inactive) | > 100 µM (inactive) | > 100 µM (inactive) | > 100 µM (inactive) | 98.6 µM (inactive) | > 100 µM (inactive) | > 100 µM (inactive) | > 100 µM (inactive) | > 100 µM (inactive) | > 100 µM (inactive) | > 100 µM (inactive) |  | 
16 | [C-]#[N+][C@@H]1C2[C@H](CC[C@@]1(C)O)C(=C)CC[C@@H]2[C@@]1(C)CC[C@H](Cl)C(C)(C)O1 (stereo partly drawn) | 2.77 µM (inactive) |  | 18.5 µM (inactive) | 8.02 µM (inactive) | 6.67 µM (inactive) | 8.3 µM (inactive) | 11 µM (inactive) | 1.92 µM (inactive) | 14 µM (inactive) | 2.23 µM (inactive) | 3.2 µM (inactive) | 3.53 µM (inactive) | 10.3 µM (inactive) | 26.3 µM (inactive) | 25.4 µM (inactive) |  | 3.49 µM (inactive) |  | 
17 | CCOC(=O)c1ccc(Nc2nc3ccc(C(F)(F)F)cc3nc2-c2ccccc2)cc1 | 63.4 µM (inactive) |  |  | > 100 µM (inactive) | > 100 µM (inactive) | > 100 µM (inactive) | > 100 µM (inactive) | 61.1 µM (inactive) | 97.3 µM (inactive) | 84.9 µM (inactive) |  | > 100 µM (inactive) | > 100 µM (inactive) | > 100 µM (inactive) |  | > 100 µM (inactive) | 71.9 µM (inactive) |  | > 100 µM (inactive)
